Test results reported in PubChem BioAssay (NCI).
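All cell lines were grown in 96-well plates and treated with compound for 48 hours. TGI: concentration producing complete growth inhibition.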

What was measured:
Experiment in all cases: NCI tumour cell line growth inhibition, 48 h
786-0 renal = system: 786-0 renal
A498 renal = system: A498 renal
A549 NSCLC = system: A549 NSCLC
ACHN renal = system: ACHN renal
BT-549 breast = system: BT-549 breast
CAKI-1 renal = system: CAKI-1 renal
CCRF-CEM leukemia = system: CCRF-CEM leukemia
COLO 205 colon = system: COLO 205 colon
DU-145 prostate = system: DU-145 prostate
EKVX NSCLC = system: EKVX NSCLC
HCC-2998 colon = system: HCC-2998 colon
HCT-116 colon = system: HCT-116 colon
HCT-15 colon = system: HCT-15 colon
HL-60(TB) leukemia = system: HL-60(TB) leukemia
HOP-62 NSCLC = system: HOP-62 NSCLC
HOP-92 NSCLC = system: HOP-92 NSCLC
HS 578T breast = system: HS 578T breast
HT29 colon = system: HT29 colon
IGROV1 ovarian = system: IGROV1 ovarian
KM12 colon = system: KM12 colon
LOX IMVI melanoma = system: LOX IMVI melanoma
M14 melanoma = system: M14 melanoma
MALME-3M melanoma = system: MALME-3M melanoma
MCF7 breast = system: MCF7 breast
MDA-MB-231 breast = system: MDA-MB-231 breast
MDA-MB-435 = system: MDA-MB-435
MDA-N = system: MDA-N
MOLT-4 leukemia = system: MOLT-4 leukemia
NCI-H23 lung = system: NCI-H23 lung
NCI-H460 lung = system: NCI-H460 lung
NCI/ADR-RES ovarian = system: NCI/ADR-RES ovarian
OVCAR-3 ovarian = system: OVCAR-3 ovarian
OVCAR-5 ovarian = system: OVCAR-5 ovarian
OVCAR-8 ovarian = system: OVCAR-8 ovarian
PC-3 prostate = system: PC-3 prostate
RPMI-8226 leukemia = system: RPMI-8226 leukemia
SF-268 CNS = system: SF-268 CNS
SF-295 CNS = system: SF-295 CNS
SF-539 CNS = system: SF-539 CNS
SK-MEL-28 melanoma = system: SK-MEL-28 melanoma
SK-MEL-5 melanoma = system: SK-MEL-5 melanoma
SK-OV-3 ovarian = system: SK-OV-3 ovarian
SN12C renal = system: SN12C renal
SNB-19 CNS = system: SNB-19 CNS
SNB-75 CNS = system: SNB-75 CNS
SR leukemia = system: SR leukemia
SW-620 colon = system: SW-620 colon
T-47D breast = system: T-47D breast
TK-10 renal = system: TK-10 renal
U251 CNS = system: U251 CNS
UACC-257 melanoma = system: UACC-257 melanoma
UO-31 renal = system: UO-31 renal
K-562 leukemia = system: K-562 leukemia
NCI-H226 lung = system: NCI-H226 lung
NCI-H522 lung = system: NCI-H522 lung
OVCAR-4 ovarian = system: OVCAR-4 ovarian
RXF 393 renal = system: RXF 393 renal
SK-MEL-2 melanoma = system: SK-MEL-2 melanoma
UACC-62 melanoma = system: UACC-62 melanoma

SMILES: NP1(Oc2ccc(F)cc2)=NP(N)(Oc2ccc(F)cc2)=NP(Oc2ccc(F)cc2)(Oc2ccc(F)cc2)=N1 (configuration not stated)
- TGI (786-0 renal): 22.9 µM
- TGI (A498 renal): 8.71 µM
- TGI (A549 NSCLC): 14.6 µM
- TGI (ACHN renal): 12.1 µM
- TGI (BT-549 breast): 7.44 µM
- TGI (CAKI-1 renal): 21.8 µM
- TGI (CCRF-CEM leukemia): 18.9 µM
- TGI (COLO 205 colon): 19.4 µM
- TGI (DU-145 prostate): 20.1 µM
- TGI (EKVX NSCLC): 19 µM
- TGI (HCC-2998 colon): 8.4 µM
- TGI (HCT-116 colon): 15.7 µM
- TGI (HCT-15 colon): 14.6 µM
- TGI (HL-60(TB) leukemia): 22.3 µM
- TGI (HOP-62 NSCLC): 21.5 µM
- TGI (HOP-92 NSCLC): 15.4 µM
- TGI (HS 578T breast): 17.7 µM
- TGI (HT29 colon): 17.2 µM
- TGI (IGROV1 ovarian): 6.31 µM
- TGI (KM12 colon): 16.2 µM
- TGI (LOX IMVI melanoma): 19.7 µM
- TGI (M14 melanoma): 19.4 µM
- TGI (MALME-3M melanoma): 18.7 µM
- TGI (MCF7 breast): 10.9 µM
- TGI (MDA-MB-231 breast): 23.4 µM
- TGI (MDA-MB-435): 19.3 µM
- TGI (MDA-N): 19 µM
- TGI (MOLT-4 leukemia): 10.5 µM
- TGI (NCI-H23 lung): 23.9 µM
- TGI (NCI-H460 lung): 13.5 µM
- TGI (NCI/ADR-RES ovarian): 18.4 µM
- TGI (OVCAR-3 ovarian): 16 µM
- TGI (OVCAR-5 ovarian): 23.7 µM
- TGI (OVCAR-8 ovarian): 14.9 µM
- TGI (PC-3 prostate): 16.4 µM
- TGI (RPMI-8226 leukemia): 18.3 µM
- TGI (SF-268 CNS): 26.7 µM
- TGI (SF-295 CNS): 15.4 µM
- TGI (SF-539 CNS): 27.5 µM
- TGI (SK-MEL-28 melanoma): 25.2 µM
- TGI (SK-MEL-5 melanoma): 17.8 µM
- TGI (SK-OV-3 ovarian): 27.2 µM
- TGI (SN12C renal): 18.5 µM
- TGI (SNB-19 CNS): 22.8 µM
- TGI (SNB-75 CNS): 14.5 µM
- TGI (SR leukemia): 15.6 µM
- TGI (SW-620 colon): 24.8 µM
- TGI (T-47D breast): 7.27 µM
- TGI (TK-10 renal): 12.3 µM
- TGI (U251 CNS): 15.9 µM
- TGI (UACC-257 melanoma): 24.7 µM
- TGI (UO-31 renal): 14.2 µM

SMILES: O=C(O)COc1c(Cl)cc(Cl)c(C(c2c(Cl)cc(Cl)c(OCC(=O)O)c2Cl)C(Cl)(Cl)Cl)c1Cl
- TGI (786-0 renal): > 100 µM
- TGI (A498 renal): > 100 µM
- TGI (A549 NSCLC): 83.8 µM
- TGI (ACHN renal): > 100 µM
- TGI (BT-549 breast): 51.3 µM
- TGI (CAKI-1 renal): > 100 µM
- TGI (COLO 205 colon): > 100 µM
- TGI (DU-145 prostate): > 100 µM
- TGI (HCC-2998 colon): 28.6 µM
- TGI (HCT-116 colon): > 100 µM
- TGI (HCT-15 colon): 76 µM
- TGI (HL-60(TB) leukemia): 59.9 µM
- TGI (HOP-62 NSCLC): 15.7 µM
- TGI (HOP-92 NSCLC): 62.4 µM
- TGI (HS 578T breast): > 100 µM
- TGI (HT29 colon): 92.6 µM
- TGI (IGROV1 ovarian): > 100 µM
- TGI (K-562 leukemia): > 100 µM
- TGI (KM12 colon): > 100 µM
- TGI (LOX IMVI melanoma): > 100 µM
- TGI (M14 melanoma): 46.8 µM
- TGI (MALME-3M melanoma): 76.7 µM
- TGI (MCF7 breast): > 100 µM
- TGI (MDA-MB-231 breast): 61.3 µM
- TGI (MDA-MB-435): 78.2 µM
- TGI (MDA-N): > 100 µM
- TGI (MOLT-4 leukemia): > 100 µM
- TGI (NCI-H226 lung): 64.1 µM
- TGI (NCI-H23 lung): 62.3 µM
- TGI (NCI-H460 lung): 89.7 µM
- TGI (NCI-H522 lung): > 100 µM
- TGI (NCI/ADR-RES ovarian): > 100 µM
- TGI (OVCAR-4 ovarian): > 100 µM
- TGI (OVCAR-5 ovarian): 67.6 µM
- TGI (OVCAR-8 ovarian): > 100 µM
- TGI (PC-3 prostate): > 100 µM
- TGI (RPMI-8226 leukemia): 85.9 µM
- TGI (RXF 393 renal): 92.7 µM
- TGI (SF-268 CNS): > 100 µM
- TGI (SF-295 CNS): 51.9 µM
- TGI (SF-539 CNS): > 100 µM
- TGI (SK-MEL-2 melanoma): 42.2 µM
- TGI (SK-MEL-28 melanoma): > 100 µM
- TGI (SK-MEL-5 melanoma): 40.6 µM
- TGI (SK-OV-3 ovarian): 47.2 µM
- TGI (SN12C renal): > 100 µM
- TGI (SNB-19 CNS): > 100 µM
- TGI (SNB-75 CNS): 93.5 µM
- TGI (SW-620 colon): > 100 µM
- TGI (T-47D breast): > 100 µM
- TGI (TK-10 renal): 95.8 µM
- TGI (U251 CNS): 77.4 µM
- TGI (UACC-257 melanoma): 59.8 µM
- TGI (UACC-62 melanoma): 37.9 µM
- TGI (UO-31 renal): 55.2 µM
